{"source": "patent US20240115547A1", "about": "“PSYCHOTROPIC AGENTS AND USES THEREOF” (LB PHARMACEUTICALS INC., priority 2021, published 2024)", "origin": "cited, not measured here", "key": {"5-HT2a receptor": {"target": "5-HT2a receptor (Homo sapiens, UniProt P28223)", "sequence (P28223 whole entry)": "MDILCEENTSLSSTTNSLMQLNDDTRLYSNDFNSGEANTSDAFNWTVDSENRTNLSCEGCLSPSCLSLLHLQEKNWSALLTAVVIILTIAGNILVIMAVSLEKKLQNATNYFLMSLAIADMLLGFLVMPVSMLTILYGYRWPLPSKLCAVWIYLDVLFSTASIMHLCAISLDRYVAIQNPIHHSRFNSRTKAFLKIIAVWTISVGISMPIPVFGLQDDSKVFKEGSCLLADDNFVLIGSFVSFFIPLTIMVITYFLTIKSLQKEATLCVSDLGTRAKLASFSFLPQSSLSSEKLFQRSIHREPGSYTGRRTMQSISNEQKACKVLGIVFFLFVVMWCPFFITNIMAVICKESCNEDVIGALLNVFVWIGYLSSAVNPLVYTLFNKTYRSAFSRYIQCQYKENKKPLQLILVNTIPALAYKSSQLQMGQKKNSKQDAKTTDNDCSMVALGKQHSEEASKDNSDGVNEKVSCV", "conditions": "compared to other antipsychotics; cited from earlier work"}, "Striatal D2/D3 Receptor": {"test_system": "Striatal D2/D3 Receptor", "conditions": "in vivo; cited from earlier work"}, "D5 receptor subtype": {"target": "D5 receptor subtype (Homo sapiens, UniProt P21918)", "sequence (P21918 whole entry)": "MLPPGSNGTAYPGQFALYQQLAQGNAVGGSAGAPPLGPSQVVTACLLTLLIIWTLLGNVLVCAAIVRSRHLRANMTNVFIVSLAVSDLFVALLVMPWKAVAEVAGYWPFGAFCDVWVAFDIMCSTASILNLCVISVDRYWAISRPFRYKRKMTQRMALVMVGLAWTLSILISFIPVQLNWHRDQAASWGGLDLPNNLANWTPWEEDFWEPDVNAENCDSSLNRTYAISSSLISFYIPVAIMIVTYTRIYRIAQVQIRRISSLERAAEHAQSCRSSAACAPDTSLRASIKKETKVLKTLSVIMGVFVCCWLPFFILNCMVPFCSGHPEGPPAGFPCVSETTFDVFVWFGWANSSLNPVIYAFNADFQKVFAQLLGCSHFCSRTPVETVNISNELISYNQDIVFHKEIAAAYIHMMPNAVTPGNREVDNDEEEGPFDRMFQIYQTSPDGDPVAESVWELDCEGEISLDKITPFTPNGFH", "conditions": "cited from earlier work"}, "[1]": {"conditions": "administration of 50 mg amisulpride, previously published (FIG. 4A); cited from earlier work"}, "D4 receptor subtype": {"target": "T1, D4 receptor subtype (Homo sapiens, UniProt P21917)", "T1 sequence (P21917 1-419)": "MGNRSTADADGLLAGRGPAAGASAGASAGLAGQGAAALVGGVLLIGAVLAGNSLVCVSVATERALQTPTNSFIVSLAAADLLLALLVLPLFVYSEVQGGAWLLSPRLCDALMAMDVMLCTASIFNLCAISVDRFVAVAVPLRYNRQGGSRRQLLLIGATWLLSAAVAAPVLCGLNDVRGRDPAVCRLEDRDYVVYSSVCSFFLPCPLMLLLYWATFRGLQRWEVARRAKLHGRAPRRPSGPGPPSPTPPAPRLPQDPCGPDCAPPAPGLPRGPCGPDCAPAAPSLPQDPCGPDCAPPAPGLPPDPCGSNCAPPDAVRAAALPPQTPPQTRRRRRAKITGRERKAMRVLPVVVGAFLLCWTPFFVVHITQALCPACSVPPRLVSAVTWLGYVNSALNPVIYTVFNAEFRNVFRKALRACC", "conditions": "cited from earlier work"}, "[2]": {"conditions": "2014 study; cited from earlier work"}, "D1 receptor subtype": {"target": "D1 receptor subtype (Homo sapiens, UniProt P21728)", "sequence (P21728 whole entry)": "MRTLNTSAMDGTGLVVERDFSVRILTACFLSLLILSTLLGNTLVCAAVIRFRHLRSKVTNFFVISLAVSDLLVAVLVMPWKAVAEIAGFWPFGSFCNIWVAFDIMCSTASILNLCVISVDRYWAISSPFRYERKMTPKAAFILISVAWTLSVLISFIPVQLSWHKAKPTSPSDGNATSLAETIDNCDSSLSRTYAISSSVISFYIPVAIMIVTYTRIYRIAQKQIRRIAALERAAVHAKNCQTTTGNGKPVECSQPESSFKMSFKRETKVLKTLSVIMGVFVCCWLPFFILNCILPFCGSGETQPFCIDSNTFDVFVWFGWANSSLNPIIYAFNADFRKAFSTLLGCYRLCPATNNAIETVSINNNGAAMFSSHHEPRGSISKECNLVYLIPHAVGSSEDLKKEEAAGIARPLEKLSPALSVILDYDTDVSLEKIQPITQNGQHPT", "conditions": "cited from earlier work"}}, "data": [{"smiles": "CCN1CCCC1CNC(=O)c1cc(S(=O)(=O)CC)c(N)cc1OC", "note": "(stereo not shown) [amisulpride, 4-amino-N-(((1-ethyl-2-pyrrolidinyl)methyl)-5-(ethylsulfonyl))-2-methoxybenzamide]", "values": [{"measurement": "activity at the 5-HT2a receptor", "setting": "5-HT2a receptor", "value": "not noted to have any activity"}, {"measurement": "dose required for 75% dopamine (e.g., D2/D3) RO", "setting": "Striatal D2/D3 Receptor", "value": "more than 400 mg"}, {"measurement": "affinity for D5 receptor subtype", "setting": "D5 receptor subtype", "value": "without any affinity"}, {"measurement": "AUC", "setting": "[1]", "value": 603, "unit": "ngh/mL"}, {"measurement": "affinity for D4 receptor subtype", "setting": "D4 receptor subtype", "value": "without any affinity"}, {"measurement": "passive diffusion across a PAMPA membrane (measured as Pe)", "setting": "[2]", "value": "lowest of 30 psychiatric drugs tested"}, {"measurement": "affinity for D1 receptor subtype", "setting": "D1 receptor subtype", "value": "without any affinity"}]}]}
